Data on 57 compounds can be found in ChEMBL document CHEMBL3272192, “Thyroxine analogues. 23. Quantitative structure-activity correlation studies of in vivo and in vitro thyromimetic activities” (1977).

Molecules are shown by their SMILES.

In assay [1] the test system is Rattus norvegicus. Briefly: In vivo antigoiter activity in rat. Format: functional.
Assay [2] is filed under the species Rattus norvegicus. Briefly: Displacement of radiolabelled L-T3 from thyroid hormone receptor in intact rat hepatic nuclei relative to T3.

For the compound `Cc1cc(CC(N)C(=O)O)cc(C)c1Oc1ccc(O)c(C(C)C)c1` (stereo unspecified), in assay [1], the Activity came out at 3.6% and the “log(%)” value was 0.556. In assay [2], the RBA was 0.7% and the log(%) is -0.155.
Consider `NC(Cc1cc(I)c(Oc2cccc(F)c2)c(I)c1)C(=O)O` (stereo unspecified), for which, in assay [1], the Activity came out at 1.39% and the “log(%)” value worked out at 0.143.
On to `Cc1cc(Oc2c(C)cc(CC(N)C(=O)O)cc2C)cc(C)c1O` (stereo unspecified), for which, in assay [1], the Activity is reported as 0.36% and the “log(%)” value was -0.444. In assay [2], the RBA is 0.1% and the log(%) is -1.
Regarding `NC(Cc1ccc(Oc2ccc(O)c(I)c2)c(I)c1)C(=O)O` (stereo unspecified) [DIIODOTHYRONINE], in assay [1], the Activity came out at 0.056% and the “log(%)” value was -1.252. In assay [2], the RBA was 0.5% and the log(%) was -0.301.
On to `NC(Cc1cc(I)c(Oc2cc(F)c(O)c(F)c2)c(I)c1)C(=O)O` (stereo unspecified), for which, in assay [1], the Activity was determined as 0.43% and the “log(%)” value is reported as -0.366.
Regarding `NC(Cc1cc(I)c(Oc2ccccc2)c(I)c1)C(=O)O` (stereo unspecified), in assay [1], the Activity is given as 1.24% and the “log(%)” value was found to be 0.093.
For the compound `NC(Cc1ccc(Oc2cc(I)c(O)c(I)c2)c(I)c1)C(=O)O` (stereo unspecified) [REVERSETRIIODOTHYRONINE], in assay [1], the Activity was 0.125% and the “log(%)” value is -0.903. For the same compound, in assay [2], the RBA is 0.1% and the log(%) is -1.
Consider `Cc1cccc(Oc2c(I)cc(CC(N)C(=O)O)cc2I)c1` (stereo unspecified), for which, in assay [1], the Activity is 2.71% and the “log(%)” value is 0.433. In assay [2], the RBA was determined as 0.2% and the log(%) is -0.699.
As to `NC(Cc1cc(Br)c(Oc2cc(Br)c(O)c(Br)c2)c(Br)c1)C(=O)O` (stereo unspecified), in assay [1], the Activity stood at 0.065% and the “log(%)” value is on record as -1.187.
In the case of `NC(Cc1cc(Cl)c(Oc2cc(Cl)c(O)c(I)c2)c(I)c1)C(=O)O` (stereo unspecified), in assay [1], the Activity stood at 2.27% and the “log(%)” value turned out to be 0.356.
In assay [2], `CC(C)c1cc(Oc2c(I)cc(CC(N)C(=O)O)cc2I)cc(C(C)C)c1O` (stereo unspecified) yielded an RBA of 1.4% and a log(%) of 0.146.
For `Cc1c(O)ccc(Oc2c(I)cc(CC(N)C(=O)O)cc2I)c1C` (stereo unspecified), in assay [1], the Activity is reported as 9.04% and the “log(%)” value came to 0.956. In assay [2], this compound gave an RBA of 1.1% and a log(%) of 0.041.
Consider `CC(C)c1cc(CC(N)C(=O)O)cc(C(C)C)c1Oc1ccc(O)c(I)c1` (stereo unspecified), for which the RBA in assay [2] is 0.2%.
In the case of `NC(Cc1cc(I)c(Oc2ccc(O)c3c2CCCC3)c(I)c1)C(=O)O` (stereo unspecified), in assay [1], the Activity is listed as 18.08% and the “log(%)” value was 1.257. In assay [2], this compound came in with an RBA of 8% and a log(%) of 0.903.
`Cc1cc(CC(N)C(=O)O)cc(I)c1Oc1ccc(O)c(I)c1` (stereo unspecified): in assay [1], the Activity was found to be 6.24% and the “log(%)” value was 0.795.
As for `Cc1cc(CC(N)C(=O)O)cc(I)c1Oc1ccc(O)cc1` (stereo unspecified), in assay [1], the Activity is on record as 0.093% and the “log(%)” value is -1.032.
Turning to `NC(Cc1cc(I)c(Oc2cccc(Cl)c2)c(I)c1)C(=O)O` (stereo unspecified), in assay [1], the Activity is listed as 7.78% and the “log(%)” value was 0.891.
As to `NC(Cc1cc(I)c(Oc2ccc(O)c([N+](=O)[O-])c2)c(I)c1)C(=O)O` (stereo unspecified), in assay [1], the Activity was 0.18% and the “log(%)” value is -0.745.
Regarding `NC(Cc1cc(Br)c(Oc2cc(Br)c(O)c(I)c2)c(I)c1)C(=O)O` (stereo unspecified), in assay [1], the Activity was 2.83% and the “log(%)” value is reported as 0.452.
The matching figures for `CC(C)c1cc(Oc2c(I)cc(CC(N)C(=O)O)cc2I)cc(I)c1O` (stereo unspecified): 55.36% and 1.743.
In the case of `NC(Cc1cc(I)c(Oc2cccc(C(F)(F)F)c2)c(I)c1)C(=O)O` (stereo unspecified), in assay [1], the Activity worked out at 13.56% and the “log(%)” value amounted to 1.132. Besides, in assay [2], the RBA was determined as 0.2% and the log(%) is -0.699.
On to `NC(Cc1cc(Cl)c(Oc2ccc(O)c(Cl)c2)c(Cl)c1)C(=O)O` (stereo unspecified), for which, in assay [1], the Activity turned out to be 0.091% and the “log(%)” value is -1.041.
The matching figures for `Cc1cc(CC(N)C(=O)O)ccc1Oc1ccc(O)c(I)c1` (stereo unspecified): 0.12% and -0.921.
Turning to `NC(Cc1cc(I)c(Oc2ccc(O)c(F)c2)c(I)c1)C(=O)O` (stereo unspecified), in assay [1], the Activity came out at 0.65% and the “log(%)” value is -0.785.
The matching figures for `Cc1cc(Oc2c(I)cc(CC(N)C(=O)O)cc2I)ccc1N` (stereo unspecified): 0.036% and -1.444.
For `CC(C)c1cc(Oc2c(Br)cc(CC(N)C(=O)O)cc2Br)ccc1O` (stereo unspecified), in assay [1], the Activity is 30% and the “log(%)” value is reported as 1.477. In addition, in assay [2], the RBA came to 36% and the log(%) turned out to be 1.56.
As to `Cc1cc(Oc2c(I)cc(CC(N)C(=O)O)cc2I)cc(C)c1N` (stereo unspecified), in assay [1], the Activity is 0.31% and the “log(%)” value is given as -0.886.
Turning to `NC(Cc1cc(Br)c(Oc2ccc(O)c(I)c2)c(Br)c1)C(=O)O` (stereo unspecified), in assay [1], the Activity worked out at 16.87% and the “log(%)” value was 1.227.
The matching figures for `CCCc1cc(Oc2c(I)cc(CC(N)C(=O)O)cc2I)ccc1O` (stereo unspecified): 39.5% and 1.597.
The matching figures for `CCC(C)c1cc(Oc2c(I)cc(CC(N)C(=O)O)cc2I)ccc1O` (stereo unspecified): 79.9% and 1.902.
The matching figures for `NC(Cc1cc(I)c(Oc2ccc(O)c(Br)c2)c(I)c1)C(=O)O` (stereo unspecified): 23.78% and 1.376.
Regarding `NC(Cc1cc(Br)c(Oc2ccc(O)c(Br)c2)c(Br)c1)C(=O)O` (stereo unspecified), in assay [1], the Activity stood at 4.63% and the “log(%)” value amounted to 0.666.
Regarding `NC(Cc1cc(Br)c(Oc2cc(I)c(O)c(I)c2)c(Br)c1)C(=O)O` (stereo unspecified), in assay [1], the Activity amounted to 1.97% and the “log(%)” value was found to be 0.294.
The matching figures for `COc1ccc(Oc2c(I)cc(CC(N)C(=O)O)cc2I)cc1C(C)C` (stereo unspecified): 19% and 1.279.
The matching figures for `CCC(C)c1cc(Oc2c(C)cc(CC(N)C(=O)O)cc2C)ccc1O` (stereo unspecified): 2.91% and 0.464.
In the case of `NC(Cc1cc(I)c(Oc2ccc(O)c(Cl)c2)c(I)c1)C(=O)O` (stereo unspecified), in assay [1], the Activity is 4.88% and the “log(%)” value is on record as 0.688. In assay [2], this compound gave an RBA of 6.2% and a log(%) of 0.792.
In the case of `Cc1cc(CC(N)C(=O)O)cc(C)c1Oc1ccc(O)c(I)c1` (stereo unspecified), in assay [1], the Activity is on record as 0.9% and the “log(%)” value was -0.046.
Turning to `COc1ccc(Oc2c(I)cc(CC(N)C(=O)O)cc2I)cc1I` (stereo unspecified), in assay [1], the Activity amounted to 11.25% and the “log(%)” value is 1.051.
The matching figures for `Cc1cc(C)cc(Oc2c(I)cc(CC(N)C(=O)O)cc2I)c1` (stereo unspecified): 0.054% and -0.839.
Turning to `NC(Cc1cc(I)c(Oc2cc(F)c(O)c(I)c2)c(I)c1)C(=O)O` (stereo unspecified), in assay [1], the Activity amounted to 6.03% and the “log(%)” value worked out at 0.78.
Consider `NC(Cc1cc(I)c(Sc2ccc(O)c(I)c2)c(I)c1)C(=O)O` (stereo unspecified), for which, in assay [1], the Activity is listed as 13.82% and the “log(%)” value came to 1.14. Moreover, in assay [2], the RBA is 100% and the log(%) is 2.
`NC(Cc1cc(I)c(Oc2ccc(O)c3ccccc23)c(I)c1)C(=O)O` (stereo unspecified): in assay [2], the RBA stood at 8% and the log(%) amounted to 0.903.
On to `Nc1ccc(Oc2c(I)cc(CC(N)C(=O)O)cc2I)cc1` (stereo unspecified), for which, in assay [1], the Activity is 0.27% and the “log(%)” value was -0.569. In assay [2], the RBA was 0.76% and the log(%) was -0.119.
With `Cc1cc(Oc2c(C)cc(CC(N)C(=O)O)cc2C)ccc1O` (stereo unspecified), in assay [1], the Activity was found to be 0.54% and the “log(%)” value is -0.268. In assay [2], the RBA worked out at 0.1% and the log(%) was -1.
Turning to `CCCc1cc(Oc2c(C)cc(CC(N)C(=O)O)cc2C)ccc1O` (stereo unspecified), in assay [1], the Activity is on record as 2.36% and the “log(%)” value was 0.373.
`NC(Cc1cc(I)c(Oc2cc(Cl)c(O)c(Cl)c2)c(I)c1)C(=O)O` (stereo unspecified): in assay [1], the Activity is 3.8% and the “log(%)” value is reported as 0.58. In assay [2], this compound yielded an RBA of 4.5% and a log(%) of 0.653.
As to `NC(Cc1cc(I)c(Cc2ccc(O)c(I)c2)c(I)c1)C(=O)O` (stereo unspecified), in assay [1], the Activity was found to be 54.25% and the “log(%)” value is recorded as 1.734. Also, in assay [2], the RBA came out at 250% and the log(%) turned out to be 2.4.
For `NC(Cc1cc(I)c(Oc2cccc(Br)c2)c(I)c1)C(=O)O` (stereo unspecified), in assay [1], the Activity was 18% and the “log(%)” value came to 1.225.
Take `NC(Cc1cc(I)c(Oc2cccc(I)c2)c(I)c1)C(=O)O` (stereo unspecified): in assay [1], the Activity worked out at 27.12% and the “log(%)” value was 1.433. Moreover, in assay [2], the RBA stood at 0.4% and the log(%) was -0.398.
On to `Cc1cc(O)c(I)cc1Oc1c(I)cc(CC(N)C(=O)O)cc1I` (stereo unspecified), for which, in assay [1], the Activity is 0.36% and the “log(%)” value was -0.444. For the same compound, in assay [2], the RBA amounted to 0.3% and the log(%) was -0.523.
With `NC(Cc1cc(I)c(Cc2cc(I)c(O)c(I)c2)c(I)c1)C(=O)O` (stereo unspecified), in assay [2], the RBA was found to be 2.6% and the log(%) amounted to 0.415.
In the case of `NC(Cc1cc(I)c(Oc2ccc(O)c(C3CCCCC3)c2)c(I)c1)C(=O)O` (stereo unspecified), in assay [2], the RBA was 1.4% and the log(%) stood at 0.146.
Take `COc1ccc(Oc2c(I)cc(CC(N)C(=O)O)cc2I)cc1C(C)(C)C` (stereo unspecified): in assay [1], the Activity is reported as 2.35% and the “log(%)” value is on record as 0.371.
With `NC(Cc1cc(Br)c(Oc2ccc(O)c(I)c2)c(I)c1)C(=O)O` (stereo unspecified), in assay [1], the Activity was 71.98% and the “log(%)” value turned out to be 1.857. Besides, in assay [2], the RBA was 1.4% and the log(%) is 0.146.
As to `NC(Cc1cc(I)c(Oc2cc(Br)c(O)c(Br)c2)c(I)c1)C(=O)O` (stereo unspecified), in assay [1], the Activity amounted to 1.58% and the “log(%)” value is reported as 0.199.
In assay [2], `NC(Cc1cc(I)c(Sc2ccc(O)cc2)c(I)c1)C(=O)O` (stereo unspecified) had an RBA of 1.3% and a log(%) of 0.114.
Regarding `Cc1cc(Oc2c(I)cc(CC(N)C(=O)O)cc2I)c(C)cc1O` (stereo unspecified), in assay [1], the Activity is reported as 0.18% and the “log(%)” value is recorded as -0.745. Further, in assay [2], the RBA was determined as 0.1% and the log(%) was -1.
